Earlier results as cited in patent US5621142A, “Aminoalkylcyclopropane derivatives” (Asahi Kasei Kogyo Kabushiki Kaisha, priority 1994, dated 1997).

Experiments:
[1] = test system: synaptosomal uptake of 5-HT; conditions: Neuropharmacology, Vol. 24, No. 12, 1211-1219, 1985
[2] = test system: synaptosomal uptake of norepipephrine; conditions: Neuropharmacology, Vol. 24, No. 12, 1211-1219, 1985

For `CCN(CC)C(=O)C1(c2ccccc2)CC1CN.Cl` (centres unmarked) [compound (A), 1-phenyl-1-diethylaminocarbonyl-2-aminomethyl-cyclopropane hydrochloride], the “activity to inhibit the synaptosomal uptake of 5-HT” value [1] is given as “has an activity to inhibit the synaptosomal uptake of norepipephrine and 5-HT” and the “activity to inhibit the synaptosomal uptake of norepipephrine” value [2] is given as “has an activity to inhibit the synaptosomal uptake of norepipephrine and 5-HT”.
